# Publication PMC6095594, “Pre-clinical evaluation of quinoxaline-derived chalcones in tuberculosis” (PLoS ONE, 2018)
# Read-outs that look alike come from different tables or passages of the source.
# How the values were obtained:
# [1] = test system: M. tuberculosis drug-resistant clinical isolate CDCT-16; format: cell-based, Mycobacterium tuberculosis
# [2] = test system: M. tuberculosis drug-resistant clinical isolate CDCT-27; format: cell-based, Mycobacterium tuberculosis
# [3] = test system: M. tuberculosis drug-resistant clinical isolate CDCT-10; format: cell-based, Mycobacterium tuberculosis
# [4] = test system: M. tuberculosis pNIP::InhA(S94A); format: cell-based, Mycobacterium tuberculosis
# [5] = test system: M. tuberculosis pNIP::KatG(S315T); format: cell-based, Mycobacterium tuberculosis
# [6] = test system: M. tuberculosis drug-resistant clinical isolate CDCT-16; details: cited from earlier work
# [7] = test system: M. tuberculosis drug-resistant clinical isolate CDCT-10; details: cited from earlier work
# [8] = test system: M. tuberculosis drug-resistant clinical isolate CDCT-27; details: cited from earlier work
SMILES,MIC [1] [µg/mL],MIC [2] [µg/mL],MIC [3] [µg/mL],MIC [4] [µg/mL],MIC [5] [µg/mL],MIC [6] [µg/mL],MIC [7] [µg/mL],MIC [8] [µg/mL]
"NNC(=O)c1ccncc1 [INH, isoniazid, reference compound]",>100,25,6.25,12.5,>100,,,
COc1ccc(OC)c(C(=O)/C=C/c2ccc3nccnc3c2)c1 [N9],3.13,3.13,1.56,3.13,1.56,,,
COc1cc(C(=O)/C=C/c2ccc3nccnc3c2)cc(OC)c1OC [N15],6.25,6.25,3.13,3.13,3.13,,,
COc1cccc(C(=O)/C=C/c2ccc3nccnc3c2)c1 [N23],5,5,2.5,2.5,1.25,,,
"CO[C@H]1/C=C/O[C@@]2(C)Oc3c(C)c(O)c4c(O)c(c(/C=N/N5CCN(C)CC5)c(O)c4c3C2=O)NC(=O)/C(C)=C\C=C\[C@H](C)[C@H](O)[C@@H](C)[C@@H](O)[C@@H](C)[C@H](OC(C)=O)[C@@H]1C [RIF, Rifampicin]",,,,,,>100,>100,<0.2
